Experimental data published in patent US20240228504A1, “SUBSTITUTED TRICYCLIC AMIDES, ANALOGUES THEREOF, AND METHODS USING SAME” (Arbutus Biopharma Corporation, priority 2020, published 2024).

What follows are compounds tested on HBV rcDNA in HepDE19 cells (assay: HepDE19 assay with bDNA quantitation of HBV rcDNA). Conditions: HepDE19 assay, inhibition of rcDNA formation, bDNA quantitation; read-out: DE-19bDNA EC50.
Type: cell-based, hepatitis B virus
`Cc1cccc2[nH]c(C(=O)N(C)C3COCc4[nH]c(=O)c5cc(F)ccc5c43)cc12` (single isomer, unassigned) [Compound 422, N-(8-Fluoro-6-oxo-1,4,5,6-tetrahydro-2H-pyrano[3,4-c]isoquinolin-1-yl)-N,4-dimethyl-1H-indole-2-carboxamide] gave an EC50 of 1200 nM. `Cc1cccc2[nH]c(C(=O)N(C)C3COCc4[nH]c(=O)c5cc(F)ccc5c43)cc12` (single isomer, unassigned) [Compound 423, N-(8-Fluoro-6-oxo-1,4,5,6-tetrahydro-2H-pyrano[3,4-c]isoquinolin-1-yl)-N,4-dimethyl-1H-indole-2-carboxamide] showed an EC50 of 10 nM. `CN(C(=O)c1cc2c(Cl)cccc2[nH]1)C1COCc2[nH]c(=O)c3cc(F)ccc3c21` (single isomer, unassigned) [Compound 424, 4-Chloro-N-(8-fluoro-6-oxo-1,4,5,6-tetrahydro-2H-pyrano[3,4-c]isoquinolin-1-yl)-N-methyl-1H-indole-2-carboxamide] showed an EC50 of 510 nM. For `CN(C(=O)c1cc2c(Cl)cccc2[nH]1)C1COCc2[nH]c(=O)c3cc(F)ccc3c21` (single isomer, unassigned) [Compound 425, 4-Chloro-N-(8-fluoro-6-oxo-1,4,5,6-tetrahydro-2H-pyrano[3,4-c]isoquinolin-1-yl)-N-methyl-1H-indole-2-carboxamide], the EC50 was 20 nM. Work on `CN(C(=O)c1cc2c(C(F)F)cccn2c1)C1CNCc2[nH]c(=O)c3cc(F)c(F)cc3c21` (single isomer, unassigned) [Compound 430, N-(8,9-Difluoro-6-oxo-1,2,3,4,5,6-hexahydrobenzo[c][1,7]naphthyridin-1-yl)-8-(difluoromethyl)-N-methylindolizine-2-carboxamide] yielded an EC50 of 6300 nM. `CN(C(=O)c1cc2c(C(F)F)cccn2c1)C1CNCc2[nH]c(=O)c3cc(F)c(F)cc3c21` (single isomer, unassigned) [Compound 431, N-(8,9-Difluoro-6-oxo-1,2,3,4,5,6-hexahydrobenzo[c][1,7]naphthyridin-1-yl)-8-(difluoromethyl)-N-methylindolizine-2-carboxamide] was tested, and the EC50 was 10 nM. Work on `CN(C(=O)c1cc2cccc(C(F)F)n2c1)C1CNCc2[nH]c(=O)c3cc(F)c(F)cc3c21` (single isomer, unassigned) [Compound 432, N-(8,9-Difluoro-6-oxo-1,2,3,4,5,6-hexahydrobenzo[c][1,7]naphthyridin-1-yl)-5-(difluoromethyl)-N-methylindolizine-2-carboxamide] yielded an EC50 of 23000 nM. Compound `CN(C(=O)c1cc2cccc(C(F)F)n2c1)C1CNCc2[nH]c(=O)c3cc(F)c(F)cc3c21` (single isomer, unassigned) [Compound 433, N-(8,9-Difluoro-6-oxo-1,2,3,4,5,6-hexahydrobenzo[c][1,7]naphthyridin-1-yl)-5-(difluoromethyl)-N-methylindolizine-2-carboxamide] has an EC50 of 50 nM. With `CN(C(=O)c1cc2c(Cl)cc(F)cc2[nH]1)C1COCc2[nH]c(=O)c3cc(F)ccc3c21` (single isomer, unassigned) [Compound 438, 4-Chloro-6-fluoro-N-(8-fluoro-6-oxo-1,4,5,6-tetrahydro-2H-pyrano[3,4-c]isoquinolin-1-yl)-N-methyl-1H-indole-2-carboxamide] the EC50 was 1700 nM. `CN(C(=O)c1cc2c(Cl)cc(F)cc2[nH]1)C1COCc2[nH]c(=O)c3cc(F)ccc3c21` (single isomer, unassigned) [Compound 439, 4-Chloro-6-fluoro-N-(8-fluoro-6-oxo-1,4,5,6-tetrahydro-2H-pyrano[3,4-c]isoquinolin-1-yl)-N-methyl-1H-indole-2-carboxamide] was tested, and the EC50 was 20 nM. `CN(C(=O)c1cc2c(Cl)cccc2[nH]1)C1CNCc2[nH]c(=O)c3cc(F)c(F)cc3c21` (single isomer, unassigned) [Compound 440, 4-Chloro-N-(8,9-difluoro-6-oxo-1,2,3,4,5,6-hexahydrobenzo[c][1,7]naphthyridin-1-yl)-N-methyl-1H-indole-2-carboxamide] gave an EC50 of 2200 nM. Work on `CN(C(=O)c1cc2c(Cl)cccc2[nH]1)C1CNCc2[nH]c(=O)c3cc(F)c(F)cc3c21` (single isomer, unassigned) [Compound 441, 4-Chloro-N-(8,9-difluoro-6-oxo-1,2,3,4,5,6-hexahydrobenzo[c][1,7]naphthyridin-1-yl)-N-methyl-1H-indole-2-carboxamide] yielded an EC50 of 20 nM. Work on `CN(C(=O)c1ccc2c(c1)CCC2)C1COCc2[nH]c(=O)c3cc(F)ccc3c21` (single isomer, unassigned) [Compound 442, N-(8-Fluoro-6-oxo-1,4,5,6-tetrahydro-2H-pyrano[3,4-c]isoquinolin-1-yl)-N-methyl-2,3-dihydro-1H-indene-5-carboxamide] yielded an EC50 of 19000 nM. In the case of `CN(C(=O)c1ccc2c(c1)CCC2)C1COCc2[nH]c(=O)c3cc(F)ccc3c21` (single isomer, unassigned) [Compound 443, N-(8-Fluoro-6-oxo-1,4,5,6-tetrahydro-2H-pyrano[3,4-c]isoquinolin-1-yl)-N-methyl-2,3-dihydro-1H-indene-5-carboxamide], the EC50 is reported as 640 nM. `CN(C(=O)c1ccc2scnc2c1)C1COCc2[nH]c(=O)c3cc(F)ccc3c21` (single isomer, unassigned) [Compound 444, N-(8-fluoro-6-oxo-1,4,5,6-tetrahydro-2H-pyrano[3,4-c]isoquinolin-1-yl)-N-methylbenzo[d]thiazole-5-carboxamide] gave an EC50 of 12200 nM. `CN(C(=O)c1ccc2scnc2c1)C1COCc2[nH]c(=O)c3cc(F)ccc3c21` (single isomer, unassigned) [Compound 445, N-(8-fluoro-6-oxo-1,4,5,6-tetrahydro-2H-pyrano[3,4-c]isoquinolin-1-yl)-N-methylbenzo[d]thiazole-5-carboxamide] was tested, and the EC50 was 700 nM. Work on `CN(C(=O)c1ccc2ncsc2c1)C1COCc2[nH]c(=O)c3cc(F)ccc3c21` (single isomer, unassigned) [Compound 446, N-(8-fluoro-6-oxo-1,4,5,6-tetrahydro-2H-pyrano[3,4-c]isoquinolin-1-yl)-N-methylbenzo[d]thiazole-6-carboxamide] yielded an EC50 of 16000 nM. `CN(C(=O)c1ccc2ncsc2c1)C1COCc2[nH]c(=O)c3cc(F)ccc3c21` (single isomer, unassigned) [Compound 447, N-(8-fluoro-6-oxo-1,4,5,6-tetrahydro-2H-pyrano[3,4-c]isoquinolin-1-yl)-N-methylbenzo[d]thiazole-6-carboxamide] gave an EC50 of 940 nM.

Same assay, conditions: Hepatitis B virus, HepDE19, HepDE19 assay, inhibition of rcDNA formation, bDNA quantitation; read-out: DE-19bDNA EC50
In the case of `CN(C(=O)c1cnc(C(F)(F)F)c(F)c1)C1CNCc2[nH]c(=O)c3cc(F)c(F)cc3c21` (single isomer, unassigned) [Compound 435, N-(8,9-Difluoro-6-oxo-1,2,3,4,5,6-hexahydrobenzo[c][1,7]naphthyridin-1-yl)-5-fluoro-N-methyl-6-(trifluoromethyl)nicotinamide], the EC50 is reported as 260 nM. Compound `CN(C(=O)c1ccc2[nH]ncc2c1)C1COCc2[nH]c(=O)c3cc(F)ccc3c21` (single isomer, unassigned) [Compound 449, N-(8-fluoro-6-oxo-1,4,5,6-tetrahydro-2H-pyrano[3,4-c]isoquinolin-1-yl)-N-methyl-1H-indazole-5-carboxamide] has an EC50 of 5600 nM.
